Measured values reported in patent US10899769B2, “Imidazopiperazinone inhibitors of transcription activating proteins” (Board of Regents, The University of Texas System, priority 2018, dated 2021).

Assays:
BRD4(49-170) bromodomain = BRD4(49-170) bromodomain (Homo sapiens (Human), UniProt O60885); experiment: BRD4 AlphaScreen Assay; conditions: binding to biotin-H4(1-21) Ac-K5/8/12/16
Protocol: (§1) Specific binding of the CBP or BRD4 bromodomain to the acetylated peptide derived from the H4 histone substrate (tetra acetylated H4(1-21) Ac-K5/8/12/16) was measured in absence or presence of inhibitors. The GST tagged bromodomains of CBP (1081-1197) and BRD4 (49-170) were obtained from BPS Bioscience and binding to the biotinylated H4(1-21) Ac-K5/8/12/16 (AnaSpec. 64989) was assessed via AlphaScreen technology (Perkin Elmer).
(§2) 5 nM GST-CBP(1081-1197) and 20 nM biotin-H4(1-21) Ac-K5/8/12/16 (AnaSpec. 64989) were incubated with varying concentrations of CBP inhibitors in 15 μL of buffer containing 50 mM HEPES 7.5, […], 1 mM TCEP, and 0.003% Tween-20. After 30 minutes incubation at room temperature, 15 μL of detection buffer (BPS Bio. 33006) containing 7 μg/mL of Glutathione AlphaLisa acceptor beads (Perkin Elmer AL109) and 14 μg/mL of Streptavidin donor beads (Perkin Elmer 676002) was then added to the previous mixture. The reaction was incubated for an additional 2 hours at room temperature, and the AlphaScreen signal was quantified using the Envision Multilabel plate reader. As negative control, GST-CBP(1081-1197) was incubated with the non-acetylated biotin-H4(1-21) peptide(AnaSpec. 62555) and in presence of 0.25% of final DMSO concentration.
(§3) the binding of 2.5 nM of BRD4(49-170) to 10 nM biotin-H4(1-21) Ac-K5/8/12/16 (AnaSpec. 64989) was assessed following the same procedure described for the CBP assay. The standard dose response curves were fitted by Genedata Screener software using the variable-slope model: Signal=Signalnegative control+(SignalDMSO control−Signalnegative control)/(1+(IC50/Dose)^Hill slope).
(§4) Only Signal and Dose in the equation were treated as know values.

[1] = target: GST-CBP(1081-1197) bromodomain (Homo sapiens (Human), UniProt Q92793); experiment: CBP AlphaScreen Assay; conditions: binding to biotin-H4(1-21) Ac-K5/8/12/16
Protocol: as §1, §2, §3, §4

Chain of GST-CBP(1081-1197) bromodomain (Q92793 1081-1197): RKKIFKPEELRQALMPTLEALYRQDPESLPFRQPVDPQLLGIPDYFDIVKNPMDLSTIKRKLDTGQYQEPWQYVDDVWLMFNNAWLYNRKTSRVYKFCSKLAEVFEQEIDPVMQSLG

| SMILES | IC50 (BRD4(49-170) bromodomain) | IC50 [1] |
| --- | --- | --- |
| CC1C(=O)N(C)Cc2c(-c3c(F)ccc4nc(-c5cnn(C)c5)c(C(F)F)cc34)nc(C3CCOCC3)n21 (single isomer, unassigned) [Example 36a, 1-(3-(Difluoromethyl)-6-fluoro-2-(1-methyl-1H-pyrazol-4-yl)quinolin-5-yl)-5,7-dimethyl-3-(tetrahydro-2H-pyran-4-yl)-7,8-dihydroimidazo[1,5-a]pyrazin-6(5H)-one] | 624 nM | 2 nM |
| CC1C(=O)N(C)Cc2c(-c3c(F)ccc4nc(-c5cnn(C)c5)c(C(F)F)cc34)nc(C3CCOCC3)n21 (single isomer, unassigned) [Example 36b, 1-(3-(Difluoromethyl)-6-fluoro-2-(1-methyl-1H-pyrazol-4-yl)quinolin-5-yl)-5,7-dimethyl-3-(tetrahydro-2H-pyran-4-yl)-7,8-dihydroimidazo[1,5-a]pyrazin-6(5H)-one] | ≥ 25000 nM | 144 nM |
| Cc1ncc(-c2cc3ccc(F)c(-c4nc(C5CCOCC5)n5c4CN(C)C(=O)C5C)c3cn2)s1 (single isomer, unassigned) [Example 37a, 1-(7-Fluoro-3-(2-methylthiazol-5-yl)isoquinolin-8-yl)-5,7-dimethyl-3-(tetrahydro-2H-pyran-4-yl)-7,8-dihydroimidazo[1,5-a]pyrazin-6(5H)-one] | 215 nM | 1 nM |
| Cc1ncc(-c2cc3ccc(F)c(-c4nc(C5CCOCC5)n5c4CN(C)C(=O)C5C)c3cn2)s1 (single isomer, unassigned) [Example 37b, 1-(7-Fluoro-3-(2-methylthiazol-5-yl)isoquinolin-8-yl)-5,7-dimethyl-3-(tetrahydro-2H-pyran-4-yl)-7,8-dihydroimidazo[1,5-a]pyrazin-6(5H)-one] | ≥ 25000 nM | 647 nM |
| Cc1ncc(-c2cc3ccc(C)c(-c4nc(C5CCOCC5)n5c4CN(C)C(=O)C5C)c3cn2)s1 (single isomer, unassigned) [Example 38a] | 1810 nM | 8 nM |
| Cc1ncc(-c2cc3ccc(C)c(-c4nc(C5CCOCC5)n5c4CN(C)C(=O)C5C)c3cn2)s1 (single isomer, unassigned) [Example 38b] | 4860 nM | 302 nM |
| CC1C(=O)N(C)Cc2c(-c3cccc4cc(-c5noc(=O)[nH]5)ncc34)nc(C3CC3)n21 (single isomer, unassigned) [Example 44a, 3-(8-(3-Cyclopropyl-5,7-dimethyl-6-oxo-5,6,7,8-tetrahydroimidazo[1,5-a]pyrazin-1-yl)isoquinolin-3-yl)-1,2,4-oxadiazol-5(4H)-one] | > 25000 nM | 68 nM |
| CC1C(=O)N(C)Cc2c(-c3cccc4cc(-c5noc(=O)[nH]5)ncc34)nc(C3CC3)n21 (single isomer, unassigned) [Example 44b, 3-(8-(3-Cyclopropyl-5,7-dimethyl-6-oxo-5,6,7,8-tetrahydroimidazo[1,5-a]pyrazin-1-yl)isoquinolin-3-yl)-1,2,4-oxadiazol-5(4H)-one] | 1460 nM | 1 nM |

The remaining lines, values ahead:

| IC50 (BRD4(49-170) bromodomain) | IC50 [1] | SMILES |
| --- | --- | --- |
| 112 nM | 1 nM | CC1C(=O)N(C)Cc2c(-c3cccc4nc(-c5noc(=O)[nH]5)c(C(F)F)cc34)nc(C3CC3)n21 (single isomer, unassigned) [Example 45a, 3-(5-(3-Cyclopropyl-5,7-dimethyl-6-oxo-5,6,7,8-tetrahydroimidazo[1,5-a]pyrazin-1-yl)-3-(difluoromethyl)quinolin-2-yl)-1,2,4-oxadiazol-5(4H)-one] |
| 5400 nM | 29 nM | CC1C(=O)N(C)Cc2c(-c3cccc4nc(-c5noc(=O)[nH]5)c(C(F)F)cc34)nc(C3CC3)n21 (single isomer, unassigned) [Example 45b, 3-(5-(3-Cyclopropyl-5,7-dimethyl-6-oxo-5,6,7,8-tetrahydroimidazo[1,5-a]pyrazin-1-yl)-3-(difluoromethyl)quinolin-2-yl)-1,2,4-oxadiazol-5(4H)-one] |
| 25000 nM | 424 nM | CC1C(=O)N(C)Cc2c(-c3cccc4nc(-c5cnn(C)c5)c(C#N)cc34)nc(C3CC3)n21 (single isomer, unassigned) [Example 56a, 5-(3-cyclopropyl-5,7-dimethyl-6-oxo-5,6,7,8-tetrahydroimidazo[1,5-a]pyrazin-1-yl)-2-(1-methyl-1H-pyrazol-4-yl)quinoline-3-carbonitrile] |
| 132 nM | 1 nM | CC1C(=O)N(C)Cc2c(-c3cccc4nc(-c5cnn(C)c5)c(C#N)cc34)nc(C3CC3)n21 (single isomer, unassigned) [Example 56b, 5-(3-cyclopropyl-5,7-dimethyl-6-oxo-5,6,7,8-tetrahydroimidazo[1,5-a]pyrazin-1-yl)-2-(1-methyl-1H-pyrazol-4-yl)quinoline-3-carbonitrile] |
| 25000 nM | 2430 nM | CCC1C(=O)N(C)Cc2c(-c3cccc4nc(-c5cnn(C)c5)c(C(F)F)cc34)nc(C3CCOCC3)n21 (single isomer, unassigned) [Example 64a, 1-(3-(difluoromethyl)-2-(1-methyl-1H-pyrazol-4-yl)quinolin-5-yl)-5-ethyl-7-methyl-3-(tetrahydro-2H-pyran-4-yl)-7,8-dihydroimidazo[1,5-a] pyrazin-6(5H)-one] |
| 729 nM | 46 nM | CCC1C(=O)N(C)Cc2c(-c3cccc4nc(-c5cnn(C)c5)c(C(F)F)cc34)nc(C3CCOCC3)n21 (single isomer, unassigned) [Example 64b, 1-(3-(difluoromethyl)-2-(1-methyl-1H-pyrazol-4-yl)quinolin-5-yl)-5-ethyl-7-methyl-3-(tetrahydro-2H-pyran-4-yl)-7,8-dihydroimidazo[1,5-a] pyrazin-6(5H)-one] |
| 25000 nM | 1000 nM | CC1C(=O)N(C)Cc2c(-c3c(F)ccc4cc(-c5ccn(C)n5)ncc34)nc(C3CCOCC3)n21 (single isomer, unassigned) [Example 90a, 1-(7-fluoro-3-(1-methyl-1H-pyrazol-3-yl)isoquinolin-8-yl)-5,7-dimethyl-3-(tetrahydro-2H-pyran-4-yl)-7,8-dihydroimidazo[1,5a] pyrazin-6(5H)-one] |
| 879 nM | 4 nM | CC1C(=O)N(C)Cc2c(-c3c(F)ccc4cc(-c5ccn(C)n5)ncc34)nc(C3CCOCC3)n21 (single isomer, unassigned) [Example 90b, 1-(7-fluoro-3-(1-methyl-1H-pyrazol-3-yl)isoquinolin-8-yl)-5,7-dimethyl-3-(tetrahydro-2H-pyran-4-yl)-7,8-dihydroimidazo[1,5a] pyrazin-6(5H)-one] |
| 25000 nM | 3610 nM | Cc1nn(C)cc1-c1cc2ccc(F)c(-c3nc(C4CCOCC4)n4c3CN(C)C(=O)C4C)c2cn1 (single isomer, unassigned) [Example 91a, 1-(3-(1,3-dimethyl-1H-pyrazol-4-yl)-7-fluoroisoquinolin-8-yl)-5,7-dimethyl-3-(tetrahydro-2H-pyran-4-yl)-7,8-dihydroimidazo[1,5-a] pyrazin-6(5H)-one] |
| 287 nM | 3 nM | Cc1nn(C)cc1-c1cc2ccc(F)c(-c3nc(C4CCOCC4)n4c3CN(C)C(=O)C4C)c2cn1 (single isomer, unassigned) [Example 91b, 1-(3-(1,3-dimethyl-1H-pyrazol-4-yl)-7-fluoroisoquinolin-8-yl)-5,7-dimethyl-3-(tetrahydro-2H-pyran-4-yl)-7,8-dihydroimidazo[1,5-a] pyrazin-6(5H)-one] |
